Experiments:
Experiment in all cases: Chemokine glycan microarray binding assay
Conditions in all cases: maximum RFU set as 100% binding, average across 2 glycan concentrations and 3 chemokine dilutions (n=6)
CCL7 = CCL7 (Homo sapiens, UniProt P80098)
Procedure: (§1) Microarray Studies: The compounds of the present invention were covalently immobilized on epoxy group collated glass slides. Slides were rehydrated with dH2O and incubated for 30 min in a staining dish with 50° C. prewarmed ethanolamine (0.05 M) in Tris-HCl (0.1 M, pH 9.0) to block the remaining reactive epoxy groups on the slide surface, then washed with 50° C. prewarmed dH2O. Slides were centrifuged at 200 g for 3 min, then fitted with the ProPlate Multi-Array 16-well slide module (Grace Bio-lab P37001) to divide into the subarrays (blocks). Slides were washed with PBST (0.1% Tween 20), aspirated, and blocked with 200 μL/subarray of blocking buffer (PBS pH 7.3+1% w/v ovalbumin) for 1 h at RT with gentle shaking. Next, the blocking solution was aspirated and 100 μL/block of primary chemokines diluted in PBS pH 7.3+1% w/v ovalbumin were incubated with gentle shaking for 2 hours at RT. Slides were washed 4 times with PBST, then with PBS (without Tween-20) for 2 min. Bound antibodies were detected by incubating with biotinylated secondary detections (1 ng/μL) diluted in PBS, 200 μL/block at RT for 1 h. Slides were washed 4 times with PBST, then with PBS (without Tween-20) for 2 min and biotinylated antibodies were detected with Cy3-SA ([…]). Slides were washed 4 times with PBST, then with PBS for 10 min followed by removal from the ProPlate Multi-Array slide module and immediately dipping in a staining dish with dH2O for 10 min with shaking. The slides were then centrifuged at 200 g for 3 min, and the dry slides immediately scanned. Binding was tested at three serial dilutions, then detected with the relevant biotinylated secondary antibody (1 μg/mL) followed by Cy3-strepavidin (1.5 μg/mL). Arrays were scanned and RFUs were calculated of chemokines binding to 100 μM glycans printed at four replicates. Rank binding of chemokines (each at three dilutions) to glycans printed at four replicates each was calculated and summarized in Table 1. For each binding assay per printed block, the maximum RFU was determined and set as 100% binding. Then, binding to all other glycans in the same block was ranked in comparison to the maximal binding, and average rank binding (and SEM) for each glycan across the three examined concentrations of each chemokine was calculated. This analysis allowed to compare the glycan-binding profiles of the different chemokines and dissect their binding preferences.
(§2) Table 1. Chemokine glycan microarray binding assay. Binding was tested at 3 serial dilutions, then detected with the relevant biotinylated secondary antibody (1 μg/ml) followed by Cy3-Strepavidin (1.5 μg/ml) (Table SX). Arrays were scanned, relative fluorescent units (RFU) obtained, and maximum RFU determined and set as 100% binding. Then rank binding (per printed glycan per concentration, per each chemokine dilution, per printed block) was determined. Since each glycans was printed at 2 concentration, 100% binding was set separately for each concentration. Then, binding to all the other glycans at the same concentration was ranked in comparison to the maximal binding, and the average rank binding and SEM for each glycan across the two glycan concentrations and three examined dilutions of each chemokine was calculated (n=6, 2 glycan concentrations across 3 chemokine dilutions). This analysis allowed to compare the glycan binding profiles of the different chemokines and dissect their binding preferences. The mean rank is shown as a heatmap of all the examined binding assays together (red highest, blue lowest and white 50th percentile of ranking).

CXCL10 = biological target: T1, CXCL10 (Homo sapiens, UniProt P02778)
T1 sequence (P02778 22-98): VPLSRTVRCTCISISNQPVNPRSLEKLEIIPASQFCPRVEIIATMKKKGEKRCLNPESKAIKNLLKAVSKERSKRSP
Procedure: as §1, §2

CCL21 = biological target: T2, CCL21 (Homo sapiens, UniProt O00585)
T2 sequence (O00585 24-134): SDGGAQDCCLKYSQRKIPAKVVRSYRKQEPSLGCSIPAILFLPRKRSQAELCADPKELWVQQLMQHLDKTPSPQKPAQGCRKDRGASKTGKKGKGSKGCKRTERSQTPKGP
Procedure: as §1, §2

CCL2 = CCL2 (Homo sapiens, UniProt P13500)
CCL2, sequence (P13500 24-99, species assumed): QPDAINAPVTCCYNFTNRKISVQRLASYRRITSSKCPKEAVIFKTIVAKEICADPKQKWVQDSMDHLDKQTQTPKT
Procedure: as §1, §2

CXCL8 = biological target: T3, CXCL8 (Homo sapiens, UniProt P10145)
T3 sequence (P10145 21-99): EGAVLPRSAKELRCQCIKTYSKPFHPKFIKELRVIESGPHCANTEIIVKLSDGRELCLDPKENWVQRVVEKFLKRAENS
Procedure: as §1, §2

CCL28 = biological target: T4, CCL28 (Homo sapiens, UniProt Q9NRJ3)
T4 sequence (Q9NRJ3 20-127): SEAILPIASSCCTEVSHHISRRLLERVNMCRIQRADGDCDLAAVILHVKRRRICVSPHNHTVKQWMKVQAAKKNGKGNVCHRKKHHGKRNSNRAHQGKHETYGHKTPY
Procedure: as §1, §2

CXCL12 = CXCL12 (Homo sapiens, UniProt P48061)
CXCL12, sequence (P48061 22-93, species assumed): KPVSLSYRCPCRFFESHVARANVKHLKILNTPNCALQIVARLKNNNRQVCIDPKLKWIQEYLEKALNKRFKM
Procedure: as §1, §2

CCL5 = biological target: T5, CCL5 (Homo sapiens, UniProt P13501)
T5 sequence (P13501 24-91): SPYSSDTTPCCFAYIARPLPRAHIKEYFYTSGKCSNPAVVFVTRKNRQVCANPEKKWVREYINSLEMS
Procedure: as §1, §2

CCL13 = CCL13 (Homo sapiens, UniProt Q99616)
CCL13, sequence (Q99616 17-98, species assumed): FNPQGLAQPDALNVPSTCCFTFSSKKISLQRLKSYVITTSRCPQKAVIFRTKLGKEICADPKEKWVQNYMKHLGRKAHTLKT
Procedure: as §1, §2

CCL7, sequence (P80098 24-99, species assumed): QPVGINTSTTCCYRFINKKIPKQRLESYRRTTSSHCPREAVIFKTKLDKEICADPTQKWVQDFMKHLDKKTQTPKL

Row | Structure (SMILES) | mean rank binding to CCL7 (CCL7) [%] | mean rank binding to CXCL10 (CXCL10) [%] | mean rank binding to CCL21 (CCL21) [%] | mean rank binding to CCL2 (CCL2) [%] | mean rank binding to CXCL8 (CXCL8) [%] | mean rank binding to CCL28 (CCL28) [%] | mean rank binding to CXCL12 (CXCL12) [%] | mean rank binding to CCL5 (CCL5) [%] | mean rank binding to CCL13 (CCL13) [%]
1 | NCCOCCO[C@@H]1OC(C(=O)O)[C@@H](O[C@@H]2OC(C(=O)O)[C@@H](O[C@@H]3OC(C(=O)O)[C@@H](O[C@@H]4OC(C(=O)O)[C@@H](O)C(O)C4O)C(O)C3O)C(O)C2O)C(O)C1O (stereo partly drawn) [Example 10, Ethoxy-2-aminoethoxyl-O-(α-L-idopyranosyl Uronic Acid-α(1→4)-α-L-idopyranosyluronic acid-α(1→4)-α-L-idopyranosyluronic acid-α(1→4))-α-L-idopyranoside Uronic Acid] | 87 | 96 | 86 | 69 | 83 | 76 | 98 | 86 | 88
2 | NCCOCCO[C@@H]1O[C@@H](C(=O)O)[C@@H](O[C@@H]2O[C@@H](C(=O)O)[C@@H](O[C@@H]3O[C@@H](C(=O)O)[C@@H](O[C@@H]4O[C@@H](C(=O)O)[C@@H](OS(=O)(=O)O)[C@H](O)[C@H]4O)[C@H](O)[C@H]3O)[C@H](O)[C@H]2O)[C@H](O)[C@H]1O [Example 11, Ethoxy-2-aminoethoxyl-O-(4-O-sulfonato)-α-L-idopyranosyl Uronic Acid-α(1→4)-α-L-Idopyranosyl Uronic Acid-α(1→4)-α-L-idopyranosyl Uronic Acid-α(1→4)-α-L-idopyranoside Uronic Acid] | 79 | 74 | 80 | 67 | 95 | 84 | 82 | 80 | 67
3 | CC(=O)NC1C(O)[C@H](O)C(CO)O[C@@H]1O[C@@H]1C(C(=O)O)O[C@@H](O[C@@H]2C(CO)O[C@H](O[C@@H]3C(C(=O)O)O[C@@H](OCCCN)C(OS(=O)(=O)O)C3O)C(NC(C)=O)C2O)C(OS(=O)(=O)O)C1O (stereo partly drawn) [Example 14, 3-Aminopropyl-O-[(2-acetamido-2-deoxy-α-D-glucopyranosyl)-(1→4)-O-(2-O-sulfonato-α-L-idopyranosyluronate)-(1→4)-O-(2-acetamido-2-deoxy-α-D-glucopyranosyl)]-(1→4)-O-2-O-sulfonato-α-L-idopyranosiduronate] | 1 | 11 | 23 | 0 | 2 | 21 | 11 | 1 | 21
4 | NCCCO[C@@H]1OC(C(=O)O)[C@@H](O[C@H]2OC(CO)[C@@H](O[C@@H]3OC(C(=O)O)[C@@H](O[C@H]4OC(CO)[C@@H](O)C(O)C4N)C(O)C3O)C(O)C2N)C(O)C1O (stereo partly drawn) [Example 15, 3-Aminopropyl-O-[(2-amino-2-deoxy-α-D-glucopyranosyl)-(1→4)-O-(α-L-idopyranosyluronate)-(1→4)-O-(2-amino-2-deoxy-α-D-glucopyranosyl)]-(1→4)-O-α-L-idopyranosiduronate] | 45 | 39 | 62 | 3 | 13 | 36 | 51 | 3 | 64

Second part, the compound after the results:

Row | mean rank binding to CCL7 (CCL7) [%] | mean rank binding to CXCL10 (CXCL10) [%] | mean rank binding to CCL21 (CCL21) [%] | mean rank binding to CCL2 (CCL2) [%] | mean rank binding to CXCL8 (CXCL8) [%] | mean rank binding to CCL28 (CCL28) [%] | mean rank binding to CXCL12 (CXCL12) [%] | mean rank binding to CCL5 (CCL5) [%] | mean rank binding to CCL13 (CCL13) [%] | Structure (SMILES)
5 | 2 | 14 | 27 | 0 | 3 | 22 | 16 | 1 | 24 | CC(=O)NC1C(O)[C@H](O)C(CO)O[C@@H]1O[C@@H]1C(C(=O)O)O[C@@H](O[C@@H]2C(CO)O[C@H](O[C@@H]3C(C(=O)O)O[C@@H](OCCCN)C(O)C3O)C(NC(C)=O)C2O)C(O)C1O (stereo partly drawn) [Example 16, 3-Aminopropyl-O-[(2-acetamido-2-deoxy-α-D-glucopyranosyl)-(1→4)-O-(α-L-idopyranosyluronate)-(1→4)-O-(2-acetamido-2-deoxy-α-D-glucopyranosyl)]-(1→4)-O-α-L-idopyranosiduronate]
6 | 35 | 27 | 48 | 1 | 9 | 66 | 45 | 4 | 64 | NCCCO[C@@H]1O[C@@H](C(=O)O)[C@@H](O[C@H]2O[C@H](CO)[C@@H](O[C@@H]3O[C@@H](C(=O)O)[C@@H](O[C@H]4O[C@H](CO)[C@@H](O)[C@H](OS(=O)(=O)O)[C@H]4N)[C@H](O)[C@H]3OS(=O)(=O)O)[C@H](OS(=O)(=O)O)[C@H]2N)[C@H](O)[C@H]1OS(=O)(=O)O [Example 18, 3-Aminopropyl-O-[(2-amino-3-O-sulfonato-2-deoxy-α-D-glucopyranosyl)-(1→4)-O-(2-O-sulfonato-α-L-idopyranosyluronate)-(1→4)-O-(2-amino-3-O-sulfonato-2-deoxy-α-D-glucopyranosyl)]-(1→4)-O-2-O-sulfonato-α-L-idopyranosiduronate]
7 | 86 | 64 | 71 | 30 | 53 | 66 | 69 | 54 | 79 | CC(=O)NC1C(O)[C@H](O)C(COS(=O)(=O)O)O[C@@H]1O[C@@H]1C(C(=O)O)O[C@@H](O[C@@H]2C(COS(=O)(=O)O)O[C@H](O[C@@H]3C(C(=O)O)O[C@@H](OCCCN)C(OS(=O)(=O)O)C3O)C(NC(C)=O)C2O)C(OS(=O)(=O)O)C1O (stereo partly drawn) [Example 20, 3-Aminopropyl-O-[(2-acetamido-6-O-sulfonato-2-deoxy-α-D-glucopyranosyl)-(1→4)-O-(2-O-sulfonato-α-L-idopyranosyluronate)-(1→4)-O-(2-acetamido-6-O-sulfonato-2-deoxy-α-D-glucopyranosyl)]-(1→4)-O-2-O-sulfonato-α-L-idopyranosiduronate]
